{
  "source": "ChEMBL document CHEMBL5230143",
  "about": "“Inhibitors of gelatinases (MMP-2 and MMP-9) for the management of hematological malignancies” (Eur J Med Chem, 2021)",
  "key": {"Jurkat E6.1 [1]": {"system": "Jurkat E6.1", "test": "Cytotoxicity against human Jurkat E6.1 cells incubated for 48 hrs by MTT assay", "assay_type": "functional, cell-based", "settings": "Jurkat E6.1, 48 h"}, "U-937": {"system": "U-937", "test": "Cytotoxicity against human U-937 cells incubated for 48 hrs by MTT assay", "assay_type": "functional, cell-based", "settings": "U-937, 48 h"}, "MOLT-4": {"system": "MOLT-4", "test": "Cytotoxicity against human MOLT-4 cells incubated for 48 hrs by MTT assay", "assay_type": "functional, cell-based", "settings": "MOLT-4, 48 h"}, "Jurkat E6.1 [2]": {"system": "Jurkat E6.1", "test": "Induction of apoptosis in human Jurkat E6.1 assessed as reduction in MMP-2 expression at 10 uM measured after 48 hrs by annexin V-FITC/propidium iodide staining based flow cytometry analysis relative to control", "assay_type": "functional", "set-up": "scale not given: the % may be the effect or the level left"}, "Jurkat E6.1 [3]": {"system": "Jurkat E6.1", "test": "Induction of apoptosis in human Jurkat E6.1 assessed as reduction in MMP-2 expression at 20 uM measured after 48 hrs by annexin V-FITC/propidium iodide staining based flow cytometry analysis relative to control", "assay_type": "functional", "set-up": "scale not given: the % may be the effect or the level left"}, "Jurkat E6.1 [4]": {"system": "Jurkat E6.1", "test": "Induction of apoptosis in human Jurkat E6.1 assessed as reduction in HDAC-8 expression at 10 uM measured after 48 hrs by annexin V-FITC/propidium iodide staining based flow cytometry analysis relative to control", "assay_type": "functional", "set-up": "scale not given: the % may be the effect or the level left"}, "Jurkat E6.1 [5]": {"system": "Jurkat E6.1", "test": "Induction of apoptosis in human Jurkat E6.1 assessed as reduction in HDAC-8 expression at 20 uM measured after 48 hrs by annexin V-FITC/propidium iodide staining based flow cytometry analysis relative to control", "assay_type": "functional", "set-up": "scale not given: the % may be the effect or the level left"}, "[6]": {"biological_target": "T1, Matrix metalloproteinase-9 (Homo sapiens, UniProt P14780)", "T1 sequence (P14780 whole entry)": "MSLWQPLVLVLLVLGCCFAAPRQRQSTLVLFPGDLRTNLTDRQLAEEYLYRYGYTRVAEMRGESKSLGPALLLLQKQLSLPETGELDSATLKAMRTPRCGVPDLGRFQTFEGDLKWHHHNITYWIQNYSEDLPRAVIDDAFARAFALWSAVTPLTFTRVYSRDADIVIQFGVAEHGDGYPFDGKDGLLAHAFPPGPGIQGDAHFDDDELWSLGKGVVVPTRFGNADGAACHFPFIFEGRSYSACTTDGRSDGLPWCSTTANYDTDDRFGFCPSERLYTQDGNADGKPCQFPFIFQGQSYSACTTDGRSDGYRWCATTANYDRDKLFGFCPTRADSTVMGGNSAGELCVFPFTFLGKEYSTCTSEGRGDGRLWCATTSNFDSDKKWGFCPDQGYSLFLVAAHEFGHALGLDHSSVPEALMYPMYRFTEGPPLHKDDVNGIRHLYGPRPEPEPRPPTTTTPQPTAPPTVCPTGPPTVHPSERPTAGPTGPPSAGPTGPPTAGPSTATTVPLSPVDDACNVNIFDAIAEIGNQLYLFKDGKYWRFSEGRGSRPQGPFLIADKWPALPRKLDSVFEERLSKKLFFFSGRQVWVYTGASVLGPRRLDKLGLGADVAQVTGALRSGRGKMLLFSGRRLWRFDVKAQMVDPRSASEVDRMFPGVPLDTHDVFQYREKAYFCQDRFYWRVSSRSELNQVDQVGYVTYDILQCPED", "test": "Binding affinity to human MMP-9 assessed as residence time"}, "Interstitial collagenase [7]": {"biological_target": "T2, Interstitial collagenase (Homo sapiens, UniProt P03956)", "T2 sequence (P03956 whole entry)": "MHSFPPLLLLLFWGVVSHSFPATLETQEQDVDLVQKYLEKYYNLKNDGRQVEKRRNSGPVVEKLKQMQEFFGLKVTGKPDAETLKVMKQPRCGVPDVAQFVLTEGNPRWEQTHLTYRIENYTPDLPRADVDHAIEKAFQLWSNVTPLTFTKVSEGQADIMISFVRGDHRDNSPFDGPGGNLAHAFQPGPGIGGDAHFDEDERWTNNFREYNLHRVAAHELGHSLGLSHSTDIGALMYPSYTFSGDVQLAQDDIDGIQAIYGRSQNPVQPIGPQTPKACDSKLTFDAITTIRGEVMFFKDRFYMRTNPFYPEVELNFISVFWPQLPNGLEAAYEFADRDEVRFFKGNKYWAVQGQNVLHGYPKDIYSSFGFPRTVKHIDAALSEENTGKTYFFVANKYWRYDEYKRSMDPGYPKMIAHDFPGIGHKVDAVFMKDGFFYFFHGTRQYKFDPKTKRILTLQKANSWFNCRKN", "test": "Inhibition of MMP-1 (unknown origin) assessed as inhibition constant"}, "physchem": {"test": "physchem", "settings": "water", "description": "Solubility of the compound in water"}, "Stromelysin-1": {"biological_target": "Stromelysin-1 (Homo sapiens, UniProt P08254)", "sequence (P08254 whole entry)": "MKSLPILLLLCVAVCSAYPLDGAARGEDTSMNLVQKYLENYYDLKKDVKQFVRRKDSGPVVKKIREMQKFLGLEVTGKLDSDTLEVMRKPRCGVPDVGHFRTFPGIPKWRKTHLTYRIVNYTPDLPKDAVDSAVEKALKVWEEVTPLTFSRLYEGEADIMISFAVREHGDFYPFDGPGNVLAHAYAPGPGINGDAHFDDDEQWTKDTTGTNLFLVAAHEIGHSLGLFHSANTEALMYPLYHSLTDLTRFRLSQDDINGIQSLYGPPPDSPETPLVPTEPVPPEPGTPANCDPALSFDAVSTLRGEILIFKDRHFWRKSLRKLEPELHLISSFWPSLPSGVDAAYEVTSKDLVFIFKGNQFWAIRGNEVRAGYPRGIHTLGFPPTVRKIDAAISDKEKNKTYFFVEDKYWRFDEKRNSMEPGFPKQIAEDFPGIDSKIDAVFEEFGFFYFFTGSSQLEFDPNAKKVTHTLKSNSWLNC", "test": "Inhibition of human recombinant MMP-3 assessed as inhibition constant"}, "[8]": {"biological_target": "T3, 72 kDa type IV collagenase (Homo sapiens, UniProt P08253)", "T3 sequence (P08253 whole entry)": "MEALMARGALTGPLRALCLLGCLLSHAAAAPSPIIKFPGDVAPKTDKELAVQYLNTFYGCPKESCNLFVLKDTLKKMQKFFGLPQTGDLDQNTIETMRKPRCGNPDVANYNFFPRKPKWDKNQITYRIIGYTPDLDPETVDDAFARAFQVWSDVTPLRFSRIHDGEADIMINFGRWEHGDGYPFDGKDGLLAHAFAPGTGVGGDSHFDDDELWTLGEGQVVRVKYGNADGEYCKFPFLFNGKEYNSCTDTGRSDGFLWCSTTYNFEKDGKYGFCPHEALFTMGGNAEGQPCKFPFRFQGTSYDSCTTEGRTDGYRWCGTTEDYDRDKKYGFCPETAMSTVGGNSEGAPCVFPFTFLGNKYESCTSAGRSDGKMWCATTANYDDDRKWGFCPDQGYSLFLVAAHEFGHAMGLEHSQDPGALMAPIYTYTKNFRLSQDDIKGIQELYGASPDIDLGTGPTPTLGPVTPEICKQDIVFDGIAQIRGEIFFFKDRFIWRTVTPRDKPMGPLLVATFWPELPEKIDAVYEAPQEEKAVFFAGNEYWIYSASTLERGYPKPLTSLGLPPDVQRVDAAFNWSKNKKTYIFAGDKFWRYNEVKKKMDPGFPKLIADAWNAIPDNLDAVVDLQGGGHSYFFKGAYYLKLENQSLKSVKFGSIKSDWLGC", "test": "Inhibition of MMP-2 (unknown origin) assessed as inhibition constant"}, "[9]": {"biological_target": "T1, Matrix metalloproteinase-9", "test": "Inhibition of MMP-9 (unknown origin) assessed as inhibition constant"}, "Neutrophil collagenase [10]": {"biological_target": "T4, Neutrophil collagenase (Homo sapiens, UniProt P22894)", "T4 sequence (P22894 whole entry)": "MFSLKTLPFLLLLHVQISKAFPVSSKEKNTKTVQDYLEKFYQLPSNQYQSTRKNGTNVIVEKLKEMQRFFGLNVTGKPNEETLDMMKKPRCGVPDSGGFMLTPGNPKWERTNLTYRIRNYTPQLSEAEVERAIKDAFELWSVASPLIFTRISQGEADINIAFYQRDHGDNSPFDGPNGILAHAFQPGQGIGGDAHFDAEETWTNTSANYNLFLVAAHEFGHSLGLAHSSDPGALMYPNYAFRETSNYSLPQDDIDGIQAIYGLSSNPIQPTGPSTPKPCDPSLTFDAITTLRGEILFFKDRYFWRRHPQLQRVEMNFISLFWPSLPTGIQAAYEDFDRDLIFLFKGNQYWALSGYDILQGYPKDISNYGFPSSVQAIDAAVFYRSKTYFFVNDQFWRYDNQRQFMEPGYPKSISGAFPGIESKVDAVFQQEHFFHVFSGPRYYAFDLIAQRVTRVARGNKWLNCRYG", "test": "Inhibition of MMP-8 (unknown origin) assessed as inhibition constant"}, "Interstitial collagenase [11]": {"biological_target": "T2, Interstitial collagenase", "test": "Inhibition of MMP-1 (unknown origin)"}, "[12]": {"biological_target": "T3, 72 kDa type IV collagenase", "test": "Inhibition of MMP-2 (unknown origin)"}, "[13]": {"biological_target": "T1, Matrix metalloproteinase-9", "test": "Inhibition of MMP-9 (unknown origin)"}, "[14]": {"biological_target": "Matrix metalloproteinase-14 (Homo sapiens, UniProt P50281)", "test": "Inhibition of MMP-14 (unknown origin)"}, "Neutrophil collagenase [15]": {"biological_target": "T4, Neutrophil collagenase", "test": "Inhibition of MMP-8 (unknown origin)"}, "[16]": {"biological_target": "Macrophage metalloelastase (Homo sapiens, UniProt P39900)", "sequence (P39900 whole entry)": "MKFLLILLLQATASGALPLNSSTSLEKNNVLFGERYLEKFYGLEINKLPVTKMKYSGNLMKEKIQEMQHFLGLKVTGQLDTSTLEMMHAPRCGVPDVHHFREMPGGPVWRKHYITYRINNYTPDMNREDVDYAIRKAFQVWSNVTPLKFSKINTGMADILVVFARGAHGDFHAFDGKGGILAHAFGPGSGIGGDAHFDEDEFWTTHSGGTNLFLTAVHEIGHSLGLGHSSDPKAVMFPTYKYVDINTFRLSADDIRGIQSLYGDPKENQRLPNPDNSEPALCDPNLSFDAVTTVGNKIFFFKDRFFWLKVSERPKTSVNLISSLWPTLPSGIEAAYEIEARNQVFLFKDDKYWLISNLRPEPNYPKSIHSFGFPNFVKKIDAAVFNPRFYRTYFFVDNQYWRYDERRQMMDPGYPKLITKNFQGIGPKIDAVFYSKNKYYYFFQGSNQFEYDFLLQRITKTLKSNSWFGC", "test": "Inhibition of MMP-12 (unknown origin)"}, "Histone deacetylase 8": {"biological_target": "T5, Histone deacetylase 8 (Homo sapiens, UniProt Q9BY41)", "T5 sequence (Q9BY41 whole entry)": "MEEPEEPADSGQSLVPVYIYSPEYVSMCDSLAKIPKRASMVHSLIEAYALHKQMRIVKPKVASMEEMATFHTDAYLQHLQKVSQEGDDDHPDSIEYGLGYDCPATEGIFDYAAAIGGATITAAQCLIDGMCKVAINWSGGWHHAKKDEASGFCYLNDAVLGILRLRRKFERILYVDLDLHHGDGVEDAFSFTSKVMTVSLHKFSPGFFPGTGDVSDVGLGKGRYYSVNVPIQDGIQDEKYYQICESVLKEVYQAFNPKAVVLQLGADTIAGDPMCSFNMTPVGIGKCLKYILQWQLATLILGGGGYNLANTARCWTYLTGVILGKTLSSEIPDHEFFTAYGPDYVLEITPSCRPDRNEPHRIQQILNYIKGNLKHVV", "test": "Inhibition of HDAC-8 (unknown origin)"}, "Jurkat E6.1 [17]": {"system": "Jurkat E6.1", "test": "Induction of apoptosis in human Jurkat E6.1 assessed as reduction in MMP-2 expression at 2 uM measured after 48 hrs by annexin V-FITC/propidium iodide staining based flow cytometry analysis relative to control", "assay_type": "functional", "set-up": "scale not given: the % may be the effect or the level left"}, "Jurkat E6.1 [18]": {"system": "Jurkat E6.1", "test": "Induction of apoptosis in human Jurkat E6.1 assessed as reduction in MMP-2 expression at 5 uM measured after 48 hrs by annexin V-FITC/propidium iodide staining based flow cytometry analysis relative to control", "assay_type": "functional", "set-up": "scale not given: the % may be the effect or the level left"}, "Jurkat E6.1 [19]": {"system": "Jurkat E6.1", "test": "Induction of apoptosis in human Jurkat E6.1 assessed as reduction in HDAC-8 expression at 2 uM measured after 48 hrs by annexin V-FITC/propidium iodide staining based flow cytometry analysis relative to control", "assay_type": "functional", "set-up": "scale not given: the % may be the effect or the level left"}, "Jurkat E6.1 [20]": {"system": "Jurkat E6.1", "test": "Induction of apoptosis in human Jurkat E6.1 assessed as reduction in HDAC-8 expression at 5 uM measured after 48 hrs by annexin V-FITC/propidium iodide staining based flow cytometry analysis relative to control", "assay_type": "functional", "set-up": "scale not given: the % may be the effect or the level left"}, "Matrilysin": {"biological_target": "T6, Matrilysin (Homo sapiens, UniProt P09237)", "T6 sequence (P09237 whole entry)": "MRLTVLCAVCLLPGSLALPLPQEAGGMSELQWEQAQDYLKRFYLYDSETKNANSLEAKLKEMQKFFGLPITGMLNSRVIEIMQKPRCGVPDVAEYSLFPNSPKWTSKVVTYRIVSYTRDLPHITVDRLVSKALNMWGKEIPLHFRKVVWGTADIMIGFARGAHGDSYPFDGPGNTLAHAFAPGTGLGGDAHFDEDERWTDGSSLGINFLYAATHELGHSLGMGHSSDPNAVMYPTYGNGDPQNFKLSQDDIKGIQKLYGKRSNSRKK", "test": "Inhibition of MMP-7 (unknown origin)"}},
  "data": [
    {"smiles": "CC(C)NC(=O)C(CCC(=O)O)NC(=O)Cc1ccc(Cl)cc1", "note": "(stereo not drawn)", "values": [
      {"measurement": "IC50", "setting": "Jurkat E6.1 [1]", "value": 11.5, "unit": "µM"},
      {"measurement": "IC50", "setting": "U-937", "value": 29.4, "unit": "µM"},
      {"measurement": "IC50", "setting": "MOLT-4", "value": 11.8, "unit": "µM"},
      {"measurement": "Activity", "setting": "Jurkat E6.1 [2]", "value": 42, "unit": "%"},
      {"measurement": "Activity", "setting": "Jurkat E6.1 [3]", "value": 58, "unit": "%"},
      {"measurement": "Activity", "setting": "Jurkat E6.1 [4]", "value": 32, "unit": "%"},
      {"measurement": "Activity", "setting": "Jurkat E6.1 [5]", "value": 58, "unit": "%"}
    ]},
    {"smiles": "O=S(=O)(CC1CS1)c1ccc(Oc2ccccc2)cc1", "note": "(stereo not drawn)", "values": [
      {"measurement": "TIME", "setting": "[6]", "value": 0.223, "unit": "h"}
    ]},
    {"smiles": "O=C(C[C@H](CSc1ccccc1)C(=O)O)c1ccc(-c2ccc(Cl)cc2)cc1", "note": "[TANOMASTAT]", "values": [
      {"measurement": "Ki", "setting": "Interstitial collagenase [7]", "value": "> 5", "unit": "µM"}
    ]},
    {"smiles": "N=C(N)NCCC[C@H](N)C(=O)Nc1ccc(Oc2ccc(S(=O)(=O)CC3CS3)cc2)cc1", "note": "(stereo partly drawn)", "values": [
      {"measurement": "solubility", "setting": "physchem", "value": "> 10000", "unit": "µg/mL"}
    ]},
    {"smiles": "COc1ccc(S(=O)(=O)N(Cc2ccccc2)[C@@H](C(=O)NO)C(C)C)cc1", "values": [
      {"measurement": "Ki", "setting": "Stromelysin-1", "value": 0.043, "unit": "µM"}
    ]},
    {"smiles": "CN1C(=O)N(C[C@H](C(=O)NO)[C@H](CC2CCCC2)C(=O)N2CCCCC2)C(=O)C1(C)C", "values": [
      {"measurement": "Ki", "setting": "[8]", "value": 0.154, "unit": "µM"},
      {"measurement": "Ki", "setting": "[9]", "value": 0.059, "unit": "µM"},
      {"measurement": "Ki", "setting": "Neutrophil collagenase [10]", "value": 0.0044, "unit": "µM"}
    ]},
    {"smiles": "O=C(O)CCC(NC(=O)Cc1ccc(Br)cc1)C(=O)NCc1ccc([N+](=O)[O-])cc1", "note": "(stereo not drawn)", "values": [
      {"measurement": "IC50", "setting": "Interstitial collagenase [11]", "value": "> 250", "unit": "µM"},
      {"measurement": "IC50", "setting": "[12]", "value": 6.4, "unit": "µM"},
      {"measurement": "IC50", "setting": "[13]", "value": 4.83, "unit": "µM"},
      {"measurement": "IC50", "setting": "[14]", "value": 56.3, "unit": "µM"},
      {"measurement": "IC50", "setting": "Neutrophil collagenase [15]", "value": 206, "unit": "µM"},
      {"measurement": "IC50", "setting": "[16]", "value": 138, "unit": "µM"},
      {"measurement": "IC50", "setting": "Histone deacetylase 8", "value": 2.89, "unit": "µM"},
      {"measurement": "IC50", "setting": "Jurkat E6.1 [1]", "value": 2.77, "unit": "µM"},
      {"measurement": "IC50", "setting": "U-937", "value": 10.6, "unit": "µM"},
      {"measurement": "IC50", "setting": "MOLT-4", "value": 4.58, "unit": "µM"},
      {"measurement": "Activity", "setting": "Jurkat E6.1 [17]", "value": 46, "unit": "%"},
      {"measurement": "Activity", "setting": "Jurkat E6.1 [18]", "value": 70, "unit": "%"},
      {"measurement": "Activity", "setting": "Jurkat E6.1 [19]", "value": 48, "unit": "%"},
      {"measurement": "Activity", "setting": "Jurkat E6.1 [20]", "value": 68, "unit": "%"}
    ]},
    {"smiles": "CNC(=O)[C@@H](NC(=O)[C@H](CC(C)C)NC(=O)[C@@H](S)CCN1C(=O)N(C)C(C)(C)C1=O)C(C)(C)C", "note": "[REBIMASTAT]", "values": [
      {"measurement": "IC50", "setting": "Interstitial collagenase [11]", "value": 0.009, "unit": "µM"},
      {"measurement": "IC50", "setting": "[12]", "value": 0.039, "unit": "µM"},
      {"measurement": "IC50", "setting": "[13]", "value": 0.027, "unit": "µM"},
      {"measurement": "IC50", "setting": "[14]", "value": 0.04, "unit": "µM"},
      {"measurement": "IC50", "setting": "Matrilysin", "value": 0.023, "unit": "µM"}
    ]}
  ]
}
